Experimental data: paper PMC6934184, “Selective DNA-PKcs inhibition extends the therapeutic index of localized radiotherapy and chemotherapy” (The Journal of Clinical Investigation, 2019)

Molecular target: T1, PIM2 (Homo sapiens, UniProt Q9P1W9)
T1 construct: purchased Thermo Fisher Scientific (Life Technologies) SelectScreen
Test: SelectScreen Z'LYTE
Type: biochemical
Procedure, shortened: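 SelectScreen broad panel; activity (Z'LYTE, Adapta) plus binding formats. ATP: Km app for CSF1R Z'LYTE; 10 for CAMK1 Adapta. Readout = % per kinase.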

T1 sequence (Q9P1W9 whole entry): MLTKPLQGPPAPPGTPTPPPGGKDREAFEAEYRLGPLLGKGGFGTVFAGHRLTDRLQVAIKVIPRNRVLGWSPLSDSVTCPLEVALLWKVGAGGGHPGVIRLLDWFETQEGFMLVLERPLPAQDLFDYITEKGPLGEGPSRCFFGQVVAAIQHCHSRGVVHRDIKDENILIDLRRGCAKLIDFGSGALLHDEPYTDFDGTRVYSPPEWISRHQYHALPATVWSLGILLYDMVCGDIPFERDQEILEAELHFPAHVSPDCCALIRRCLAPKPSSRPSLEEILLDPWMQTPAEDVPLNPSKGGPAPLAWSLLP

Compound: CN(C(=O)CN1CCOCC1)c1ccc2sc3c(-c4cccc5c(=O)cc(N6CC7CCC(C6)O7)oc45)cccc3c2c1 [NU5455]
- inhibition at 1 µM: -4.3%
